The source of these data is US20240217930A1 (priority 2021, published 2024).

For the experiment, the target named is SARS-CoV-2 Mpro (Severe acute respiratory syndrome coronavirus 2, UniProt P0DTD1). The experiment can be described thus: SARS-CoV-2 Mpro FRET-based enzyme assay. In kind it is biochemical. Particulars: 5 nM Mpro, 25 μM FRET substrate, 20 min preincubation at room temperature; mean n=2; read-out: SARS-CoV-2 Mpro enzyme pKi assay pKi (converted).
Consider `CC(C)C(=O)N[C@H](C(=O)N1C[C@H]2[C@@H]([C@H]1C(=O)NC(CC1CC1)C(=O)C(N)=O)C2(C)C)C(C)(C)C` (stereo partly drawn) [Example 1, (1 R,2S,5S)—N-(4-Amino-1-cyclopropyl-3,4-dioxobutan-2-yl)-3-((S)-2-isobutyramido-3,3-dimethylbutanoyl)-6,6-dimethyl-3-azabicyclo[3.1.0]hexane-2-carboxamide], for which the Ki was 15.8 nM.
Then `CC(C)[C@H](NC(=O)C1CC1)C(=O)N1C[C@H]2[C@@H]([C@H]1C(=O)NC(CC1CC1)C(=O)C(N)=O)C2(C)C` (stereo partly drawn) [Example 2, (1 R,2S,5S)—N-[3-Amino-1-(cyclopropylmethyl)-2,3-dioxo-propyl]-3-[(2S)-2-(cyclopropanecarbonylamino)-3-methylbutanoyl]-6,6-dimethyl-3-azabicyclo[3.1.0]hexane-2-carboxamide], with 50.1 nM.
The same measure for `CC[C@@H](C)[C@H](NC(=O)C(C)C)C(=O)N1C[C@H]2[C@@H]([C@H]1C(=O)NC(CC1CC1)C(=O)C(N)=O)C2(C)C` (stereo partly drawn) [Example 3, (1R,2S,5S)—N-(4-Amino-1-cyclopropyl-3,4-dioxobutan-2-yl)-3-(isobutyryl-L-alloisoleucyl)-6,6-dimethyl-3-azabicyclo[3.1.0]hexane-2-carboxamide]: 79.4 nM; for `C=CC(=O)N[C@H](C(=O)N1C[C@H]2[C@@H]([C@H]1C(=O)NC(CC1CC1)C(=O)C(N)=O)C2(C)C)C(C)C` (stereo partly drawn) [Example 4, (1 R,2S,5S)-3-(Acryloyl-L-valyl)-N-(4-amino-1-cyclopropyl-3,4-dioxobutan-2-yl)-6,6-dimethyl-3-azabicyclo[3.1.0]hexane-2-carboxamide]: 50.1 nM.
In the case of `CC(C)C(=O)N[C@H](C(=O)N1C[C@H]2[C@@H]([C@H]1C(=O)NC(C[C@H]1C[C@@H]1C)C(=O)C(N)=O)C2(C)C)C(C)C` (stereo partly drawn) [Example 5, (1 R,2S,5S)—N-(4-Amino-1-((1 R,2S)-2-methylcyclopropyl)-3,4-dioxobutan-2-yl)-3-(isobutyryl-L-valyl)-6,6-dimethyl-3-azabicyclo[3.1.0]hexane-2-carboxamide], the Ki is 158 nM.
Then `CC(C)C(=O)N[C@@H](CC1CC1)C(=O)N1C[C@H]2[C@@H]([C@H]1C(=O)NC(CC1CC1)C(=O)C(N)=O)C2(C)C` (stereo partly drawn) [Example 6, (1 R,2S,5S)—N-(4-Amino-1-cyclopropyl-3,4-dioxobutan-2-yl)-3-((S)-3-cyclopropyl-2-isobutyramidopropanoyl)-6,6-dimethyl-3-azabicyclo[3.1.0]hexane-2-carboxamide], with 200 nM; and `CC(C)C(=O)N[C@H](C(=O)N1C[C@H]2[C@@H]([C@H]1C(=O)NC(CC1CC1)C(=O)C(N)=O)C2(C)C)C(C)C` (stereo partly drawn) [Example 7, (1 R,2S,5S)—N-(4-Amino-1-cyclopropyl-3,4-dioxobutan-2-yl)-3-(isobutyryl-L-valyl)-6,6-dimethyl-3-azabicyclo[3.1.0]hexane-2-carboxamide], with 200 nM.
Then `CC1(C)[C@@H]2[C@@H](C(=O)NC(CC3CC3)C(=O)C(N)=O)N(C(=O)[C@@H](NC(=O)C3CC3)C3CC3)C[C@@H]21` (stereo partly drawn) [Example 9, (1 R,2S,5S)—N-(4-Amino-1-cyclopropyl-3,4-dioxobutan-2-yl)-3-((S)-2-(cyclopropanecarboxamido)-2-cyclopropylacetyl)-6,6-dimethyl-3-azabicyclo[3.1.0]hexane-2-carboxamide], with 316 nM; and `CC(C)C(=O)N[C@H](C(=O)N1C[C@H]2[C@@H]([C@H]1C(=O)NC(CC1CC1)C(=O)C(N)=O)C2(C)C)C1CC1` (stereo partly drawn) [Example 10, (1 R,2S,5S)—N-(4-Amino-1-cyclopropyl-3,4-dioxobutan-2-yl)-3-((S)-2-cyclopropyl-2-isobutyramidoacetyl)-6,6-dimethyl-3-azabicyclo[3.1.0]hexane-2-carboxamide], with 316 nM; and `CC(C)C(=O)NC(C(=O)N1C[C@H]2[C@@H]([C@H]1C(=O)NC(CC1CC1)C(=O)C(N)=O)C2(C)C)C1COC1` (stereo partly drawn) [Example 13, (1 R,2S,5S)—N-(4-Amino-1-cyclopropyl-3,4-dioxobutan-2-yl)-3-(2-isobutyramido-2-(oxetan-3-yl)acetyl)-6,6-dimethyl-3-azabicyclo[3.1.0]hexane-2-carboxamide], with 316 nM.
For the molecule `CC(C)(C)[C@H](NC(=O)C1CC1)C(=O)N1C[C@H]2[C@@H]([C@H]1C(=O)NC(CC1CC1)C(=O)C(N)=O)C2(C)C` (stereo partly drawn) [Example 14, (1 R,2S,5S)—N-(4-Amino-1-cyclopropyl-3,4-dioxobutan-2-yl)-3-((S)-2-(cyclopropanecarboxamido)-3,3-dimethylbutanoyl)-6,6-dimethyl-3-azabicyclo[3.1.0]hexane-2-carboxamide], the Ki was 15.8 nM.
In the case of `C=CC(=O)N[C@H](C(=O)N1C[C@H]2[C@@H]([C@H]1C(=O)NC(CC1CC1)C(=O)C(N)=O)C2(C)C)C(C)(C)C` (stereo partly drawn) [Example 15, (1 R,2S,5S)-3-((S)-2-Acrylamido-3,3-dimethylbutanoyl)-N-(4-amino-1-cyclopropyl-3,4-dioxobutan-2-yl)-6,6-dimethyl-3-azabicyclo[3.1.0]hexane-2-carboxamide], the Ki was 3.98 nM.
On to `CC(C)(C)[C@H](NC(=O)C1CC1)C(=O)N1C[C@H]2[C@@H]([C@H]1C(=O)NC(CC1CC1)C(=O)C(=O)NCc1ccccc1)C2(C)C` (stereo partly drawn) [Example 18, (1 R,2S,5S)—N-(4-(Benzylamino)-1-cyclopropyl-3,4-dioxobutan-2-yl)-3-((S)-2-(cyclopropanecarboxamido)-3,3-dimethylbutanoyl)-6,6-dimethyl-3-azabicyclo[3.1.0]hexane-2-carboxamide], for which the Ki was 50.1 nM.
Turning to `CC(C)(C)[C@H](NC(=O)C1CC1)C(=O)N1C[C@H]2[C@@H]([C@H]1C(=O)NC(CC1CC1)C(=O)C(=O)NC1CC1)C2(C)C` (stereo partly drawn) [Example 19, (1 R,2S,5S)-3-((S)-2-(Cyclopropanecarboxamido)-3,3-dimethylbutanoyl)-N-(1-cyclopropyl-4-(cyclopropylamino)-3,4-dioxobutan-2-yl)-6,6-dimethyl-3-azabicyclo[3.1.0]hexane-2-carboxamide], the Ki was 50.1 nM.
For `CNC(=O)C(=O)C(CC1CC1)NC(=O)[C@@H]1[C@@H]2[C@H](CN1C(=O)[C@@H](NC(=O)C(C)C)C(C)(C)C)C2(C)C` (stereo partly drawn) [Example 22, (1 R,2S,5S)—N-(1-Cyclopropyl-4-(methylamino)-3,4-dioxobutan-2-yl)-3-((S)-2-isobutyramido-3,3-dimethylbutanoyl)-6,6-dimethyl-3-azabicyclo[3.1.0]hexane-2-carboxamide], the Ki is 15.8 nM.
Turning to `CC(C)C(=O)N[C@H](C(=O)N1C[C@H]2[C@@H]([C@H]1C(=O)NC(CC1CC1)C(=O)C(=O)N(C)C)C2(C)C)C(C)(C)C` (stereo partly drawn) [Example 23, (1 R,2S,5S)—N-(1-Cyclopropyl-4-(dimethylamino)-3,4-dioxobutan-2-yl)-3-((S)-2-isobutyramido-3,3-dimethylbutanoyl)-6,6-dimethyl-3-azabicyclo[3.1.0]hexane-2-carboxamide], the Ki is > 5010 nM.
Then `CC(C)C(=O)N[C@H](C(=O)N1C[C@H]2[C@@H]([C@H]1C(=O)NC(CC1CC1)C(=O)C(N)=O)C2(C)C)C1CCC1` (stereo partly drawn) [Example 25, (1 R,2S,5S)—N-(4-Amino-1-cyclopropyl-3,4-dioxobutan-2-yl)-3-((S)-2-cyclobutyl-2-isobutyramidoacetyl)-6,6-dimethyl-3-azabicyclo[3.1.0]hexane-2-carboxamide], with 251 nM; and `CC(C)C(=O)N[C@H](C(=O)N1C[C@H]2[C@@H]([C@H]1C(=O)NC(C#N)CC1CC1)C2(C)C)C(C)(C)C` (stereo partly drawn) [Example 27, (1 R,2S,5S)—N-(1-Cyano-2-cyclopropylethyl)-3-((S)-2-isobutyramido-3,3-dimethylbutanoyl)-6,6-dimethyl-3-azabicyclo[3.1.0]hexane-2-carboxamide], with > 5010 nM; and `CC(C)[C@H](NC(=O)C1CC1)C(=O)N1C[C@H]2[C@@H]([C@H]1C(=O)NC(CC1CC1)C(=O)C(=O)NC1CC1)C2(C)C` (stereo partly drawn) [Example 29, (1 R,2S,5S)-3-((Cyclopropanecarbonyl)-L-valyl)-N-(1-cyclopropyl-4-(cyclopropylamino)-3,4-dioxobutan-2-yl)-6,6-dimethyl-3-azabicyclo[3.1.0]hexane-2-carboxamide], with 251 nM.
For `CC(C)C(=O)NC(C(=O)N1C[C@H]2[C@@H]([C@H]1C(=O)NC(CC1CC1)C(=O)C(N)=O)C2(C)C)C1CCOC1` (stereo partly drawn) [Example 30, (1 R,2S,5S)—N-(4-Amino-1-cyclopropyl-3,4-dioxobutan-2-yl)-3-(2-isobutyramido-2-(tetrahydrofuran-3-yl)acetyl)-6,6-dimethyl-3-azabicyclo[3.1.0]hexane-2-carboxamide], the Ki is 158 nM.
With `CC(C)C(=O)N[C@H](C(=O)N1C[C@H]2[C@@H]([C@H]1C(=O)NC(CC1CC1)C(=O)C(=O)N[C@H]1CC1(C)C)C2(C)C)C(C)(C)C` (stereo partly drawn) [Example 31, (1 R,2S,5S)—N-(1-Cyclopropyl-4-(((S)-2,2-dimethylcyclopropyl)amino)-3,4-dioxobutan-2-yl)-3-((S)-2-isobutyramido-3,3-dimethylbutanoyl)-6,6-dimethyl-3-azabicyclo[3.1.0]hexane-2-carboxamide], the Ki is 100 nM.
The same measure for `CC(C)(C)[C@H](NC(=O)C(C(F)(F)F)C(F)(F)F)C(=O)N1C[C@H]2[C@@H]([C@H]1C(=O)NC(CC1CC1)C(=O)C(N)=O)C2(C)C` (stereo partly drawn) [Example 33, (1 R,2S,5S)—N-(4-Amino-1-cyclopropyl-3,4-dioxobutan-2-yl)-3-((S)-3,3-dimethyl-2-(3,3,3-trifluoro-2-(trifluoromethyl)propanamido)butanoyl)-6,6-dimethyl-3-azabicyclo[3.1.0]hexane-2-carboxamide]: 158 nM.
